Measurements from BindingDB's records for doi:10.1073/pnas.2111172118 (Baylor College of Medicine, 2021).

Target: Replicase polyprotein 1ab (Severe acute respiratory syndrome coronavirus 2, UniProt P0DTD1)
Test: Enzyme Inhibition Assay and Ki Values Determination
Source text: Initial hydrolysis rates of fluorescent peptide were plotted as a function of compound concentrations and Ki values were obtained by fitting the data into the Morrison equation (42) with SE from triplicates.

## COc1cc(-c2cccc3[nH]ncc23)cc(CO)c1OCC(=O)N1CCC(Oc2cccc(C(=O)N(C)C)c2)C1 (stereo unspecified) [CDD-1714]
  Ki: 0.024 µM
